Laboratory results: patent US20240269139A1, “COMPOUNDS FOR TARGETED PROTEIN DEGRADATION OF KINASES” (DANA-FARBER CANCER INSTITUTE, INC., priority 2020, published 2024)
Where two headings read alike, the source gives them in different places.

Columns and labels:
Format in all cases: cell-based
[1] = biological target: protein kinases (human kinome) (Homo sapiens, UniProt Q2M2I8)
[2] = biological target: protein kinases (human kinome) (Homo sapiens, UniProt P16591); conditions: for logFC of FER (P16591-1): down; for logFC of FER: FER P16591-1
[3] = biological target: T1, protein kinases (human kinome) (Homo sapiens, UniProt O14976); conditions: for logFC of GAK (O14976): down; for logFC GAK: GAK (O14976), direction down
T1 sequence (O14976 1-1311): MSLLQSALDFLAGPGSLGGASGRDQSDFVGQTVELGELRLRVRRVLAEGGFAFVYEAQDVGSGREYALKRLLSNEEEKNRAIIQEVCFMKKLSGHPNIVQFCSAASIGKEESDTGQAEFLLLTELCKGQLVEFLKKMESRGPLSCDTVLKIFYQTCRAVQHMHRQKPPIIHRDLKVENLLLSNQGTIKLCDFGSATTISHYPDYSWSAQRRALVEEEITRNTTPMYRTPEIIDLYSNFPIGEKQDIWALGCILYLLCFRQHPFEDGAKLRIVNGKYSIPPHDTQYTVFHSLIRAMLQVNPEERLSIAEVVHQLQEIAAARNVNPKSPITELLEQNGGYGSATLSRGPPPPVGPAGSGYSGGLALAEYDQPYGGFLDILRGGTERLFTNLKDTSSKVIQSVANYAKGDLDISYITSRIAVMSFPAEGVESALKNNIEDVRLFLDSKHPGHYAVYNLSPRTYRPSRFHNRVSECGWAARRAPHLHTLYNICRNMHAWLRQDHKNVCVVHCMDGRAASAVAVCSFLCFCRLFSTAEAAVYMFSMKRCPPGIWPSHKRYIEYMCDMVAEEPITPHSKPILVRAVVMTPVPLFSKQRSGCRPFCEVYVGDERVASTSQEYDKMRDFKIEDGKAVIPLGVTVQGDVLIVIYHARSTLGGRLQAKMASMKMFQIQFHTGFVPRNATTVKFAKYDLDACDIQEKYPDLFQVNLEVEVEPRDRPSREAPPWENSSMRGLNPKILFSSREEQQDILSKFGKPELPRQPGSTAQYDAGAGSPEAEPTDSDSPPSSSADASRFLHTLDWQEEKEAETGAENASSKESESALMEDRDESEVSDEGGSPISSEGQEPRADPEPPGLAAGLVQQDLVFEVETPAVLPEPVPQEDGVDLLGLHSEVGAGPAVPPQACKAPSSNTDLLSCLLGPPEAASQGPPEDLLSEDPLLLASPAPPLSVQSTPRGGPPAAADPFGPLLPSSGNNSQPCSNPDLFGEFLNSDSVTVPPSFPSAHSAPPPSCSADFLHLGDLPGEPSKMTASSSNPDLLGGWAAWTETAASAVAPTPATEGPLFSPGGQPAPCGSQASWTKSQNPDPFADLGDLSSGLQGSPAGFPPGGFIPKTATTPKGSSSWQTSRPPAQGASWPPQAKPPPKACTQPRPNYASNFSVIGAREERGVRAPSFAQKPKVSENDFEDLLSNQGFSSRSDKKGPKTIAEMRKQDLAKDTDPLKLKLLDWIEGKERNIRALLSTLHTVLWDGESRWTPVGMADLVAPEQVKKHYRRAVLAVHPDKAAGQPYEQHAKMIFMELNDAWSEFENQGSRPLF

[4] = biological target: protein kinases (human kinome) (Homo sapiens, UniProt Q00534); conditions: for logFC CDK6: CDK6 (Q00534), direction down; for logFC of CDK6 (Q00534): down
Sequence of protein kinases (human kinome) (Homo sapiens, UniProt Q00534) (Q00534 whole entry): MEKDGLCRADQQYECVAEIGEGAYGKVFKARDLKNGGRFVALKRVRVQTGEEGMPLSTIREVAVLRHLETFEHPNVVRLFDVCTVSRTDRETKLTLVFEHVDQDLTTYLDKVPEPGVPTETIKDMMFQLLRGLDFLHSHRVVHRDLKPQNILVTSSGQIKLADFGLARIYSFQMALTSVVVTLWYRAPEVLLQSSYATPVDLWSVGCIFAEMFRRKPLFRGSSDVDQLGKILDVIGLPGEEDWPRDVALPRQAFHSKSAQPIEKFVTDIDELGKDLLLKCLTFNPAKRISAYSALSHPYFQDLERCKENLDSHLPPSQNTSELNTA

Sequence of protein kinases (human kinome) (Homo sapiens, UniProt P16591) (P16591 whole entry): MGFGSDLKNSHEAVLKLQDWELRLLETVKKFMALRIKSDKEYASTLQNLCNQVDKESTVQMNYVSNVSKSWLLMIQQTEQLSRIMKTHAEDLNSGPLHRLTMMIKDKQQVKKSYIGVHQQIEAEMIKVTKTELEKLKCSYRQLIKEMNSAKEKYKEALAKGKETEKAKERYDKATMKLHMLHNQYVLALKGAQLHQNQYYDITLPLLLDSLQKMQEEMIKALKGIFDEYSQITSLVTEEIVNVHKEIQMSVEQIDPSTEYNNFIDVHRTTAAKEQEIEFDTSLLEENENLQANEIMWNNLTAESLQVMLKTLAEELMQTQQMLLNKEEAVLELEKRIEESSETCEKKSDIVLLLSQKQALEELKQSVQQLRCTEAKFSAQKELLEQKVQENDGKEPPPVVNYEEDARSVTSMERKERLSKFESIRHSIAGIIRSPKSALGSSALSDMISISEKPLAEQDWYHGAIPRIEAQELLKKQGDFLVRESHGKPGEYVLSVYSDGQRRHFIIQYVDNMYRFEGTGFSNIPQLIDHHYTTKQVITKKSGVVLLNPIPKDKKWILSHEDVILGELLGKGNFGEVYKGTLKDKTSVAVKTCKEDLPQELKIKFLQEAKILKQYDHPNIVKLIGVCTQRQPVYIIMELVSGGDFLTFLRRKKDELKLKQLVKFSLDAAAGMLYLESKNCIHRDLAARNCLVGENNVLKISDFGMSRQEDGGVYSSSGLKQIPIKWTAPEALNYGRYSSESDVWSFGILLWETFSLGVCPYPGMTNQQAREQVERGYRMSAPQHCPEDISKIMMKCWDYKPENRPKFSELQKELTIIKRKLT
Sequence of protein kinases (human kinome) (Homo sapiens, UniProt Q2M2I8) (Q2M2I8 whole entry): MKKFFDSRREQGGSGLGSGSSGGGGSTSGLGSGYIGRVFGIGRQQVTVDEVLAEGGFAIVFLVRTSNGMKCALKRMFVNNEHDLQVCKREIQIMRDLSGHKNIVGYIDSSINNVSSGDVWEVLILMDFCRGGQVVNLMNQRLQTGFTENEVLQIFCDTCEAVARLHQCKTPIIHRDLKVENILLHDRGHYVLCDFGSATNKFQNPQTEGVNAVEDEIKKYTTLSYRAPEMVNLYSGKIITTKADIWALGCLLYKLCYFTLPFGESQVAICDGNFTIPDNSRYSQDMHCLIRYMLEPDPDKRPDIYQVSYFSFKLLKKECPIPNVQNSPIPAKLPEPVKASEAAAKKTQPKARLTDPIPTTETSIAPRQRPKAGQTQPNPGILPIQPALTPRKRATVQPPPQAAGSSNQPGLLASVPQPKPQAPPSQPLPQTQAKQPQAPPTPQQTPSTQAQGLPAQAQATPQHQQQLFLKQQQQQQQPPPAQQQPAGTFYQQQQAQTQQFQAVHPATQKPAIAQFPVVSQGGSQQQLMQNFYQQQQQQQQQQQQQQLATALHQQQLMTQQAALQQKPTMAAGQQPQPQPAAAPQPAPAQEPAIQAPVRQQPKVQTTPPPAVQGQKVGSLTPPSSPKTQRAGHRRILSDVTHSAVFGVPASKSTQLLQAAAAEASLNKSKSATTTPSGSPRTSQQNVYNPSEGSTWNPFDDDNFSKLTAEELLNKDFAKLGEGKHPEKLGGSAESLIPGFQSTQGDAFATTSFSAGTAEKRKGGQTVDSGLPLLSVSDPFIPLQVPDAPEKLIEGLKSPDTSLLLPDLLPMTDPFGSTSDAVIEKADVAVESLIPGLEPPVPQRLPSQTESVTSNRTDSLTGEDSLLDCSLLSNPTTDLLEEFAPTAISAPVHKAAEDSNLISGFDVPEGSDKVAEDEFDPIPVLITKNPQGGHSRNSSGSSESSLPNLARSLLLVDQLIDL

SMILES: Cc1ncsc1-c1ccc([C@H](C)NC(=O)[C@@H]2C[C@@H](O)CN2C(=O)[C@@H](NC(=O)CCOCCOCCN2CCN(c3ccc(Nc4ncc(Cl)c(Nc5ccccc5S(=O)(=O)C(C)C)n4)cc3)CC2)C(C)(C)C)cc1 [FMF.06.098.1]
- logFC AAK1 ([1]; AAK1 (Q2M218-1), experiment wp108, down): −0.4346
- logFC AAK1 ([1]; AAK1 (Q2M218-1), experiment wp114, down): −0.485
- logFC AAK1 ([1]; AAK1 (Q2M218-1), experiment wp131, down): −0.7293
- logFC AAK1 ([1]; AAK1, accession Q2M218-1, experiment wp108, direction of change down): −0.4346
- logFC AAK1 ([1]; AAK1, accession Q2M218-1, experiment wp114, direction of change down): −0.485
- logFC AAK1 ([1]; AAK1, accession Q2M218-1, experiment wp131, direction of change down): −0.7293
- logFC of FER (P16591-1) ([2]; Experiment wp108): −0.3577
- logFC of FER (P16591-1) ([2]; Experiment wp131): −0.4871
- logFC of FER ([2]; experiment wp108): −0.3577
- logFC of FER ([2]; experiment wp131): −0.4871
- logFC of GAK (O14976) ([3]; Experiment wp108): −0.4156
- logFC of GAK (O14976) ([3]; Experiment wp131): −0.3469
- logFC GAK ([3]; experiment wp108): −0.4156
- logFC GAK ([3]; experiment wp131): −0.3469
- logFC CDK6 ([4]; experiment wp108): −0.3588
- logFC CDK6 ([4]; experiment wp131): −0.5377
- logFC of CDK6 (Q00534) ([4]; Experiment wp108): −0.3588
- logFC of CDK6 (Q00534) ([4]; Experiment wp131): −0.5377
